Data reported in patent publication US9266939B2, “Compositions comprising natriuretic peptides and methods of use thereof” (Alexion Pharmaceuticals, Inc., priority 2010, dated 2016).
Where “and” joins values, the source holds several entries; their conditions need not be identical. Equal entries are not always repeated. Bridge positions count the residues as written; N and C are the ends. Ends that are not written are not given here. Peptide text beside a SMILES is read from it.

Tests used:
NPR-B [1] = biological target: T1, NPR-B (Homo sapiens, UniProt P20594); assay: Membrane guanylyl cyclase (cGMP) assay, NPR-B; assay type: biochemical
T1 sequence (P20594 23-1047): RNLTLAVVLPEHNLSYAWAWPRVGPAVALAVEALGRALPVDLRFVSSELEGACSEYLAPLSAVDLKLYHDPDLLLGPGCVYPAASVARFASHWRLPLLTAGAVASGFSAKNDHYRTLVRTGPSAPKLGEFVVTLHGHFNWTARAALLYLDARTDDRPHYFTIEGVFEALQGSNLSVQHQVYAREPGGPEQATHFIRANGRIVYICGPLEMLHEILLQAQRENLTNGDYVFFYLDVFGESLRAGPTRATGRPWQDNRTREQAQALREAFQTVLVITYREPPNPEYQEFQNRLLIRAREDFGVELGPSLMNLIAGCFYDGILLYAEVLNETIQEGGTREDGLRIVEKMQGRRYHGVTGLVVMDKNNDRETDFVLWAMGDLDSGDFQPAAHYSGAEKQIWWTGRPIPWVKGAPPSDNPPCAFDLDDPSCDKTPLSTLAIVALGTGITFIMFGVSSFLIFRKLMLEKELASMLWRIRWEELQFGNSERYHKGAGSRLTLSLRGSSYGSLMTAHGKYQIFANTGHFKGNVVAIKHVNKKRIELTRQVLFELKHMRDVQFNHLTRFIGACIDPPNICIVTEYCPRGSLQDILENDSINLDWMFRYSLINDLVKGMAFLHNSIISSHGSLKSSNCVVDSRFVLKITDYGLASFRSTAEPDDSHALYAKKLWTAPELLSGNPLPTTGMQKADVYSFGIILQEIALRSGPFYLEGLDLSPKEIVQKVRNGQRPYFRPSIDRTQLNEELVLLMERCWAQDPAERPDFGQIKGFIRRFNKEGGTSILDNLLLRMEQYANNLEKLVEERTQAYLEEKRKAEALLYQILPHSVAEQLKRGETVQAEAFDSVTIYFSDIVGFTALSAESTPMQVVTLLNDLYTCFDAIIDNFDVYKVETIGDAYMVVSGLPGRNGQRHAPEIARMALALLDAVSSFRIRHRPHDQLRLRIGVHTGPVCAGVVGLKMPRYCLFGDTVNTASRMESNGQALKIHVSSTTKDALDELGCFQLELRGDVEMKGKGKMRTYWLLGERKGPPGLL

[2] = biological target: T2, neutral endopeptidase (NEP) (Homo sapiens, UniProt P08473)
NPR-A = NPR-A (Homo sapiens, UniProt P16066); assay type: biochemical
[3] = biological target: T2, neutral endopeptidase (NEP); assay: in vitro; details: isolated enzyme neprilysin, pH 7.5
NPR-B [4] = biological target: T1, NPR-B; assay: Whole cell guanylyl cyclase (cGMP) assay, NPR-B; assay type: cell-based; design: expressed in transfected cells; details: for Emax: read-out: % Efficacy
Protocol: HEK293S cells in a semi-confluent 75 cm2 flask are transfected with 30 μg of plasmid DNA coding for the appropriate receptor, e.g., human NPR-B or NPR-A, using Lipofectamine-2000CD. Alternatively, a stable polyclonal HEK293 S cell line expressing either human NPR-B or NPR-A was used. 24 hours after transfection, cells are trypsinized and plated into 48-well plates at 1×10^5 cells/well. Guanylyl cyclase assay is carried out 24 hours post-plating. Cells are first incubated for 30 minutes at 37° C. with serum-free DMEM medium. Then, they are incubated in triplicate with or without increasing concentrations of reference or test proteins in serum-free DMEM supplemented with 1 mM IBMX and 0.5% BSA, at 37° C. for 30 minutes to one hour. CNP serves as a suitable reference for NPR-B, while ANP is a suitable reference for NPR-A. Finally, cells are washed with ice-cold PBS and solubilized in lysis buffer from Catchpoint cGMP kit (Molecular devices). Concentrations of cGMP in lysate are determined using the Catchpoint cGMP kit. Dose-response curves are analysed with GraphPad Prism 5 software using non-linear regression with four-parameter logistic equation.

T2 sequence (P08473 whole entry): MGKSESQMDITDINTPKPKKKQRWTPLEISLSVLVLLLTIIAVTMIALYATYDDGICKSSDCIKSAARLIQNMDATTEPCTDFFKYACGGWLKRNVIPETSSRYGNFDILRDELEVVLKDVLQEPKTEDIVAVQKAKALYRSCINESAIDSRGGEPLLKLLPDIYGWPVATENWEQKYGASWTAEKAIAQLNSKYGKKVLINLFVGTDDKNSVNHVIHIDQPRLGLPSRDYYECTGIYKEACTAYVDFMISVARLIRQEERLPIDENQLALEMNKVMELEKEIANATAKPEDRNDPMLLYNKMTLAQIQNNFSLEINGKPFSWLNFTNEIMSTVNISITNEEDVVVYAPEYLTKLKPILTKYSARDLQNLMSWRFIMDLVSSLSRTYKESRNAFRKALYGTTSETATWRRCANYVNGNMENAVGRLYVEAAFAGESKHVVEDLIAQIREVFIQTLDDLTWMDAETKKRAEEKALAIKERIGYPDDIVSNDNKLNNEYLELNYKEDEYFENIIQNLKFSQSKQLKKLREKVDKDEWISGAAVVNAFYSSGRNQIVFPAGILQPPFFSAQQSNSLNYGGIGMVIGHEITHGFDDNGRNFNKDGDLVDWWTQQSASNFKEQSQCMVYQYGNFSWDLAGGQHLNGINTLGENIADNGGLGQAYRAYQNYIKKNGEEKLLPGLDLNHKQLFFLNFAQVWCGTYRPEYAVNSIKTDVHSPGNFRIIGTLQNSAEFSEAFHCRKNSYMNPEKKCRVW
Chain of NPR-A (P16066 33-1061): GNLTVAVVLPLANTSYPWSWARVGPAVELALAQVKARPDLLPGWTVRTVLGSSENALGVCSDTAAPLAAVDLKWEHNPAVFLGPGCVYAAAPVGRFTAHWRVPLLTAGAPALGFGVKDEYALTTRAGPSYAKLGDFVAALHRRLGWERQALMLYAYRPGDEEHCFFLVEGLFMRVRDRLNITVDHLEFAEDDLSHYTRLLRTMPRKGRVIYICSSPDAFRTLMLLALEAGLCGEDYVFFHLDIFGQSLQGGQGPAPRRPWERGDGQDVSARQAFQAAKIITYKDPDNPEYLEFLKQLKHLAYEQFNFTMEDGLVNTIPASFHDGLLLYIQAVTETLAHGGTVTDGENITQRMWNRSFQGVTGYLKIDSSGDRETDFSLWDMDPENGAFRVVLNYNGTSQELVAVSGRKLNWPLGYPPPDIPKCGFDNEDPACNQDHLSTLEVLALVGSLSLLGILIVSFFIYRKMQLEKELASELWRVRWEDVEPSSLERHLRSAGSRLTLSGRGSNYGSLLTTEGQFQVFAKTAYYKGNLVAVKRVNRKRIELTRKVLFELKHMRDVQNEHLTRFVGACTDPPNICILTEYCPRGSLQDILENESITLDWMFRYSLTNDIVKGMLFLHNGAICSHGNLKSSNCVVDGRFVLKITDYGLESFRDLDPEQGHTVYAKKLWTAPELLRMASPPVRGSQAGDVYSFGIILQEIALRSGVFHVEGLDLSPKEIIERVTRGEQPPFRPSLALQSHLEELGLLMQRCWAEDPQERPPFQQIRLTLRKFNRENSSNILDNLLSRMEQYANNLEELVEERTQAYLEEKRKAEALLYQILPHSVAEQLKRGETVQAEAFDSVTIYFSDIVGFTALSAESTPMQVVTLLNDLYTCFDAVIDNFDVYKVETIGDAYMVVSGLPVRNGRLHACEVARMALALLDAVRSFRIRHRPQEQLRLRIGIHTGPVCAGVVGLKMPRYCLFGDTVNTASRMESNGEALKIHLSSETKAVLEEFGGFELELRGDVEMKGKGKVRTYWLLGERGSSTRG

Molecule | Approximate fold gain in selectivity versus CDNP (NPR-B [1]) | Approximate fold selectivity NPR-B versus NPR-A (NPR-B [1]) [fold] | NPR-B selective efficacy gain (NPR-B [1]) [%] | sensitivity to NEP degradation [2] | % loss in efficacy versus CDNP (NPR-A) [%] | % efficacy versus CDNP on NPR-A (NPR-A) | % efficacy versus CDNP on NPR-B (NPR-B [1]) [%] | remaining at 4 h [3] [%] | Resist NEP degradation (No/Yes) [2] | EC50 Ratio versus CNP22 (NPR-B [4]) | Rescue Ratio Average (NPR-B [4]) | Rescue Ratio versus CNP22 (NPR-B [4]) | Rescue range (NPR-B [4]) [nM] | EC50 (NPR-B [4]) [nM] | Emax (NPR-B [4]) [%]
CC[C@H](C)[C@@H]1NC(=O)[C@H](CCCNC(=N)N)NC(=O)[C@H](CC(=O)O)NC(=O)[C@H](CC(C)C)NC(=O)[C@H](CCCCN)NC(=O)[C@H](CC(C)C)NC(=O)CNC(=O)[C@H](Cc2ccccc2)NC(=O)[C@@H](NC(=O)CNC(=O)[C@H](CCCCN)NC(=O)[C@H](CO)NC(=O)[C@H](CC(C)C)NC(=O)CN)CSSC[C@@H](C(=O)N2CCC[C@H]2C(=O)N[C@@H](CO)C(=O)N[C@@H](CO)C(=O)N[C@@H](C)C(=O)N[C@@H](CC(=O)O)C(=O)N2CCC[C@H]2C(=O)N[C@@H](CCCNC(=N)N)C(=O)N2CCC[C@H]2C(=O)N[C@@H](CC(N)=O)C(=O)N[C@@H](C)C(=O)N2CCC[C@H]2C(=O)N[C@@H](CO)C(=O)N[C@H](C(=O)N[C@@H](CO)C(=O)N[C@@H](C)C(=O)O)[C@@H](C)O)NC(=O)CNC(=O)[C@H](CC(C)C)NC(=O)CNC(=O)[C@H](CO)NC(=O)[C@H](CCSC)NC(=O)[C@H](CO)NC(=O)CNC1=O [CDNP-SAD] (HELM PEPTIDE1{G.L.S.K.G.C.F.G.L.K.L.D.R.I.G.S.M.S.G.L.G.C.P.S.S.A.D.P.R.P.N.A.P.S.T.S.A}$PEPTIDE1,PEPTIDE1,6:R3-22:R3$$$V2.0) | 28 fold and 28.5 fold | 83.2 | 27 | comparable NEP sensitivity | 27 |  |  |  |  |  |  |  |  |  | 
CC[C@H](C)[C@@H]1NC(=O)[C@H](CCCNC(=N)N)NC(=O)[C@H](CC(=O)O)NC(=O)[C@H](CC(C)C)NC(=O)[C@H](CCCCN)NC(=O)[C@H](CC(C)C)NC(=O)CNC(=O)[C@H](Cc2ccccc2)NC(=O)[C@@H](NC(=O)CNC(=O)[C@H](CCCCN)NC(=O)[C@H](CO)NC(=O)[C@H](CC(C)C)NC(=O)CN)CSSC[C@@H](C(=O)N2CCC[C@H]2C(=O)N[C@@H](CO)C(=O)N[C@@H](CO)C(=O)N[C@@H](C)C(=O)N[C@@H](C)C(=O)N2CCC[C@H]2C(=O)N[C@@H](CCCNC(=N)N)C(=O)N2CCC[C@H]2C(=O)N[C@@H](CC(N)=O)C(=O)N[C@@H](C)C(=O)N2CCC[C@H]2C(=O)N[C@@H](CO)C(=O)N[C@H](C(=O)N[C@@H](CO)C(=O)N[C@@H](C)C(=O)O)[C@@H](C)O)NC(=O)CNC(=O)[C@H](CC(C)C)NC(=O)CNC(=O)[C@H](CO)NC(=O)[C@H](CCSC)NC(=O)[C@H](CO)NC(=O)CNC1=O [CDNP-SAA] (HELM PEPTIDE1{G.L.S.K.G.C.F.G.L.K.L.D.R.I.G.S.M.S.G.L.G.C.P.S.S.A.A.P.R.P.N.A.P.S.T.S.A}$PEPTIDE1,PEPTIDE1,6:R3-22:R3$$$V2.0) | 15 fold and 14.9 fold | 43.5 | 69 | slightly more sensitive to NEP than CDNP | 69 | 34-69% |  |  |  |  |  |  |  |  | 
CC[C@H](C)[C@@H]1NC(=O)[C@H](CCCNC(=N)N)NC(=O)[C@H](CC(=O)O)NC(=O)[C@H](CC(C)C)NC(=O)[C@H](CCCCN)NC(=O)[C@H](CC(C)C)NC(=O)CNC(=O)[C@H](Cc2ccccc2)NC(=O)[C@@H](NC(=O)CNC(=O)[C@H](CCCCN)NC(=O)[C@H](CO)NC(=O)[C@H](CC(C)C)NC(=O)CN)CSSC[C@@H](C(=O)N2CCC[C@H]2C(=O)N[C@@H](CO)C(=O)N[C@@H](CO)C(=O)N[C@@H](CCCNC(=N)N)C(=O)N[C@@H](C)C(=O)N2CCC[C@H]2C(=O)N[C@@H](CCCNC(=N)N)C(=O)N2CCC[C@H]2C(=O)N[C@@H](CC(N)=O)C(=O)N[C@@H](C)C(=O)N2CCC[C@H]2C(=O)N[C@@H](CO)C(=O)N[C@H](C(=O)N[C@@H](CO)C(=O)N[C@@H](C)C(=O)O)[C@@H](C)O)NC(=O)CNC(=O)[C@H](CC(C)C)NC(=O)CNC(=O)[C@H](CO)NC(=O)[C@H](CCSC)NC(=O)[C@H](CO)NC(=O)CNC1=O [CDNP-SRA] (HELM PEPTIDE1{G.L.S.K.G.C.F.G.L.K.L.D.R.I.G.S.M.S.G.L.G.C.P.S.S.R.A.P.R.P.N.A.P.S.T.S.A}$PEPTIDE1,PEPTIDE1,6:R3-22:R3$$$V2.0) | 1.2 fold and 1.23 fold | 3.59 | 82 | comparable NEP sensitivity | 82 | 36% | 118 |  |  |  |  |  |  |  | 
EEEEEEASTSPANPQPAASSPGLSKGCFGLKLDRIGSMSGLGC (disulfide 27-43) [C2(E6) [BC2]] |  |  |  |  |  |  |  | 101 | Yes | 49.0 | 803 | 177-1429 | 424 to 20000 | 720 | 97
EEEEEESGGGGSGGGQGANQQGLSKGCFGLKLDRIGSMSGLGC (disulfide 27-43) [C5(E6) [BC5]] |  |  |  |  |  |  |  | 100 | Yes | 161 | 138 |  | 334 to 1899 | 2360 | 96
EEEEEESGGGGSGGGKGANKQGLSKGCFGLKLDRIGSMSGLGC (disulfide 27-43) [C6(E6) [BC6]] |  |  |  |  |  |  |  | 98 | Yes | 45.7 | 63 | 55-70 | 132 to 973 | 672 | 88
EEEEEESGGGGSGGGKGANKKGLSKGCFGLKLDRIGSMSGLGC (disulfide 27-43) [C4(E6) [BC4]] |  |  |  |  |  |  |  | 94 | Yes | 20.5 | 18 |  | 46 to 219 | 302 | 136
EEEEEEPSSAAPQPNAPSTSAGLSKGCFGLKLDRIGSMSGLGC (disulfide 27-43) [C3(E6) [BC3]] |  |  |  |  |  |  |  | 100 | Yes | 67.4 | 199 | 117-281 | 280 to 3927 | 990 | 67
EEEEEESGGGGSGGGQGANQKGLSKGCFGLKLDRIGSMSGLGC (disulfide 27-43) [C10(E6) [BC10]] |  |  |  |  |  |  |  | 102 | Yes | 168 | 90 | 89-90 | 213 to 1253 | 2470 | 156
